Measured values published in patent US20110130405A1, “SUBSTITUTED QUINAZOLINES AS BLOOD PLATELET LOWERING AGENTS” (Shire LLC, priority 2008, published 2011).

Tests used:
[1] = biological target: human phosphodiesterase III (PDE III); settings: cited from earlier work
[2] = system: erythroid or myelomonocytic differentiation; settings: stimulated by erythropoietin or granulocyte-macrophage colony-stimulating factor; cited from earlier work
[3] = system: human megakaryocytopoiesis; settings: cited from earlier work
[4] = human; cited from earlier work
[5] = system: human phosphodiesterase III (PDE III); assay: PDE III inhibition; assay type: biochemical; settings: more potent than anagrelide
From the text: In early volunteer trials, the most frequently reported adverse effects AEs other than headache were palpitations, postural dizziness and nausea. During patient studies, the most frequently reported drug-related AEs were headache, palpitations, oedema/fluid retention, nausea/vomiting, diarrhea, dizziness and abdominal pain. These effects are all likely to arise from the secondary, cardiovascular pharmacology associated with anagrelide resulting from its inhibitory effects on human phosphodiesterase III (PDE III). […] Inhibition of myocardial PDE III leads to positive inotropy (increasing of the force of contractions of the heart), increased chronotropy (increase in heart rate), and peripheral vasodilatation. Such cardiovascular manifestations of this inhibition are typically seen with the classical positive inotropes, milrinone and enoximone, and exploited in the short-term acute treatment of congestive heart failure. However, in the treatment of a so-called silent disease (i.e., asymptomatic) such as ET, the cardiovascular side-effects of palpitations and tachycardia associated with anagrelide limit its utility and a significant proportion of patients—reportedly between 25 and 50%—fail to tolerate the drug during long term treatment.

[6] = pharmacokinetics in humans; assay type: in vivo, human; settings: after anagrelide treatment
From the text: The metabolism of anagrelide generally proceeds extremely rapidly, resulting in a less than ideal pharmacokinetic profile of the drug. […] This, combined with the side-effects profile, can lead to poor patient compliance. Furthermore, anagrelide undergoes a large first pass effect (>50%) leading to considerable intersubject variation in achieved exposures and, therefore, potentially variable drug response. Also, exposure to the pharmacologically active metabolite varies dramatically between patients since its formation is dependent on CYP1A, an enzyme whose expression is highly dependent on exposure to inducing agents such as cigarette smoke. Overall, this may result in the need for careful dose titration in patients being treated with anagrelide.

In the case of `Cc1[nH]c(=O)c(C#N)cc1-c1ccncc1` [milrinone], the IC50 [1] is listed as 170 to 350 nM.

In the case of `O=C1CN2Cc3c(ccc(Cl)c3Cl)N=C2N1` [Anagrelide, 6,7-dichloro-1,5-dihydroimidazo[2,1-b]-quinazolin-2(3H)-one], the “effect on erythroid or myelomonocytic differentiation” value [2] is listed as “does not affect”, the IC50 ([3]; in vitro, dose-dependent, read-out: estimated IC50, inhibition of TPO-induced megakaryocytopoiesis) is listed as roughly 26 nM and the IC50 [1] is listed as roughly 29 nM. For the same compound, the first pass effect [4] was greater than 50%.

In the case of `O=C1NC2=Nc3ccc(Cl)c(Cl)c3CN2C1O` (stereo not drawn) [3-hydroxyanagrelide], the “potency as PDE III inhibitor relative to anagrelide” value [5] is given as “over 40 fold”, the “in vivo exposure relative to parent drug” value [6] is given as 2-3 fold and the “potency of inhibition of megakaryocytopoiesis relative to parent drug” value ([3]; compared with anagrelide) is given as “no more potent than the parent drug”. For the same compound, the typical half-life [4] was 2.5 h.
